# Results published in US8637321B2, “Lipidomics approaches for central nervous system disorders” (priority 2005, dated 2014).
# Legend:
# [1] = system: patients with schizophrenia; experiment: Clinical Global Impressions (CGI) Scale psychopathology assessment; format: in vivo, human; details: means and standard error; for CGI Affective, Post / CGI Negative, Post / CGI Positive, Post: CGI Scale 1 to 7, higher scores greater severity; for CGI Change, Post: overall global change rating at follow-up (1-2 responders, 3-6 non-responders)
# From the text: (§1) Fifty male and female patients were recruited in two studies for metabolic profiling (Table VI and Table VII for demographics). Subjects ranged in age from 18 to 60 years and met the following inclusion criteria: a) DSM-IV criteria for schizophrenia, schizophreniform disorder, or schizoaffective disorder; b) newly hospitalized for a psychotic exacerbation in the setting of no antipsychotic treatment for at least 3 weeks prior to admission; and c) provided signed informed consent. Patients with psychoses due to psychoactive substance abuse or an underlying medical condition were excluded. Patients who were receiving treatment for diabetes mellitus or hyperlipidemia were also excluded.
# The choice and dose of antipsychotic medication was based on the doctor's judgment. […] The treatment duration was 2-3 weeks. […] The 2-3 week duration permits the study of acute early effects.
# Psychopathology was assessed on the Clinical Global Impressions (CGI) Scale at baseline and at the time of follow-up blood draws. Scores for the CGI Scale can range from 1 to 7, with higher scores indicating greater severity of illness (Guy (1975) ECDEU Assessment Manual for Psychopharmacology: Publication ADM 76-338. Washington, D.C.: US Department of Health, Education, and Welfare). An overall global change rating was also made at the time of the follow-up blood draw.
# [2] = system: patients with schizophrenia; experiment: plasma lipid profiling pre- and post-treatment with antipsychotics; format: in vivo, human; as to CE18:3n3 I/D: key: I: increase; D: decrease; as to DG18:3n6 I/D: key: I: increase; D: decrease; as to FA.SFA I/D: key: I: increase; D: decrease; as to FA16:0 I/D: key: I: increase; D: decrease; as to FA18:0 I/D: key: I: increase; D: decrease; as to FA20:4n6 I/D: key: I: increase; D: decrease; as to FA20:5n3 I/D: key: I: increase; D: decrease; as to FA24:0 I/D: key: I: increase; D: decrease; as to LY.n9 I/D: key: I: increase; D: decrease; as to LY18:0 I/D: key: I: increase; D: decrease; as to LY18:1n9 I/D: key: I: increase; D: decrease; as to LY18:3n6 I/D: key: I: increase; D: decrease; as to LY20:1n9 I/D: key: I: increase; D: decrease; as to LY20:2n6 I/D: key: I: increase; D: decrease; as to LY20:3n9 I/D: key: I: increase; D: decrease; as to LY20:4n3 I/D: key: I: increase; D: decrease; as to LYLC I/D: key: I: increase; D: decrease; as to PC.n9 I/D: key: I: increase; D: decrease; as to PC14:0 I/D: key: I: increase; D: decrease; as to PC16:1n7 I/D: key: I: increase; D: decrease; as to PC18:0 I/D: key: I: increase; D: decrease; as to PC18:1n9 I/D: key: I: increase; D: decrease; as to PC18:3n3 I/D: key: I: increase; D: decrease; as to PC18:3n6 I/D: key: I: increase; D: decrease; as to PC20:2n6 I/D: key: I: increase; D: decrease; as to PC20:3n9 I/D: key: I: increase; D: decrease; as to PC20:4n3 I/D: key: I: increase; D: decrease; as to PC20:5n3 I/D: key: I: increase; D: decrease; as to PCLC I/D: key: I: increase; D: decrease; as to PE.n9 I/D: key: I: increase; D: decrease; as to PE18:1n9 I/D: key: I: increase; D: decrease; as to PELC I/D: key: I: increase; D: decrease; as to TG14:0 I/D: key: I: increase; D: decrease; as to TG14:1n5 I/D: key: I: increase; D: decrease; as to TG18:0 I/D: key: I: increase; D: decrease; as to TG18:3n6 I/D: key: I: increase; D: decrease; as to TG20:0 I/D: key: I: increase; D: decrease; as to TG20:3n6 I/D: key: I: increase; D: decrease; as to TG20:4n3 I/D: key: I: increase; D: decrease; as to TG20:5n3 I/D: key: I: increase; D: decrease
# From the text: as §1
# The choice and dose of antipsychotic medication was based on the doctor's judgment. […] The treatment duration was 2-3 weeks. […] The mean duration of therapy was about 2 weeks for all 3 drugs in Study II. The drug groups were otherwise generally similar in severity of disease and physical characteristics (Table VI and Table VII). The 2-3 week duration permits the study of acute early effects.
# All blood samples were drawn from subjects in the early morning after overnight fasting. Blood was drawn into vacutainer tubes containing sodium heparin, immediately placed on ice, and within 10 minutes, the blood was centrifuged and the plasma was transferred into polypropylene tubes and stored in a −30° C. freezer. All baseline samples were drawn prior to starting antipsychotic treatment in the study. If a patient had received a dose of an antipsychotic during the referral process (e.g., because of agitation when initially seen in a local emergency department), drawing of baseline plasma samples was delayed for 2-3 days. Follow-up samples were drawn after patients had received an average of 2-3 weeks of acute antipsychotic treatment.
# A comprehensive assessment of plasma lipid profiles was performed (Lipomics Technologies, West Sacramento, Calif.) according to established methods (Watkins, et al. (2002) J. Lipid Res. 43(11):1809-17). Quantitative measurements of fatty acids in various lipid classes were determined as nmol fatty acid/gram of plasma. Lipid classes included cholesterol esters (CE), free cholesterol (FC), triacylglycerols (TG), diacylglycerols (DG), free fatty acids (FA), lysophosphatidylcholine (LY), phosphatidylcholine (PC), and phosphatidylethanolamine (PE). Lipid metabolites are identified by the lipid class and the fatty acid moiety. In the context of this invention, fatty acids are identified first by the number of carbons in the molecule (e.g., 20), the number of double bonds in the molecule (e.g., 4), and lastly the position of the double bonds (e.g., n6). To illustrate, PC20:4n6 denotes a phosphatidylcholine molecule containing a 20 carbon fatty acid with 4 double bonds at the n6 position.
# Significant differences between pre- and post-drug treatment were assessed by paired t-tests. Evaluation of response to drug was assessed by two-way ANOVA. All statistics were done using R with the following functions: t.test, anova, prcomp, and g/m (Team RDC (2005) R: A language and environment for statistical computing. R Foundation for Statistical Computing). Before beginning statistical analyses, change detection was used to determine if observed signals were greater than that which could be expected by chance (noise). The chance distribution of p-values was determined by permuting the outcome groupings (Golub, et al. (1999) Science 286(5439):531-7). Briefly, P values for the appropriate comparison were calculated for each metabolite using a Student's t-test. The metabolites were ranked by p value from smallest to largest. The log of the rank versus the log of the p value for each comparison of interest was plotted and is represented by a colored line. The distribution of p values expected by chance at each rank is indicated by the shaded area. […]
# [3] = cited from earlier work
# [4] = system: fatty acid elongation and desaturation (delta 5 desaturase, delta 6 desaturase, elongase); experiment: pathway analysis: lipid synthesis enzyme activities estimated from fatty acid ratios; format: in vivo, human
# Method: Estimates of lipid synthesis enzyme activities were calculated using the precursor to product ratios for each enzyme. The following ratios were used: 18:3n6/18:2n6 for delta 6 desaturase; 20:3n6/18:3n6 for delta 6 elongase; 20:4n6/20:3n6 for delta 5 desaturase; 22:4n6/20:4n6 for elongase; 24:4n6/22:4n6 for elongase; 24:5n6/24:4n6 for delta 6 desaturase. The absolute numbers for each fatty acid metabolite were used for calculating metabolite changes.
# To characterize fatty acid elongation and desaturation processes that might be modified in schizophrenia, various ratios of products to substrates in different fatty acid pathways were determined and are summarized in Table VIII.
# [5] = Study I, after 2-3 weeks treatment
# [6] = Study II, about 2 weeks treatment
# [7] = Study I, plasma, post-treatment vs pre-treatment
# [8] = Study II, plasma, post-treatment vs pre-treatment
# [9] = plasma, mole percentage data, post treatment compared with pretreatment
# [10] = plasma, total lipid class data (nmol/g sample), post treatment compared with pretreatment
structure (smiles),measurement,setting,value
"Cc1nc2n(c(=O)c1CCN1CCC(c3noc4cc(F)ccc34)CC1)CCCC2 [Risperidone, risperidone]","CGI Affective, Post",[1]; [5],1.7 ± 0.3
same,"CGI Negative, Post",[1]; [5],2 ± 0.4
same,"CGI Positive, Post",[1]; [5],2.6 ± 0.2
same,"CGI Change, Post",[1]; Study I,2.9 ± 0.3
same,"CGI Affective, Post",[1]; [6],1.2 ± 0.2
same,"CGI Negative, Post",[1]; [6],1.4 ± 0.2
same,"CGI Positive, Post",[1]; [6],3 ± 0.3
same,"CGI Change, Post",[1]; Study II,3 ± 0.3
same,"concentration of arachidonic acid, AA (20:4n6)","[2]; Study I, plasma lipid classes, post-treatment vs pre-treatment",not significantly altered
same,CE concentration,[2]; [7],trend toward an increase
same,DG concentration,[2]; [7],trend toward an increase
same,FA (free fatty acid) class concentration,[2]; [7],decrease
same,LY class concentration,[2]; [7],increase
same,PC class concentration,[2]; [7],increased
same,PE class concentration,[2]; [7],increased
same,TG concentration,[2]; [7],trend toward an increase
same,concentration of linoleic acid (18:2n6) and its immediate metabolic products 18:3n6 and 20:3n6,[2]; [7],increased
same,"concentration of saturated fatty acids in PE, PC and LY",[2]; [7],increased
same,"concentration of total n6 and n3 fatty acids in PE, PC and LY",[2]; [7],increased
same,n7 and n9 free fatty acids,[2]; [7],decreases
same,DG concentration,[2]; [8],significantly increased
same,PC18:3n6 concentration,[2]; [8],increased
same,PC20:2n6 concentration,[2]; [8],increased
same,PC20:3n6 concentration,[2]; [8],increased
same,PC concentration,[2]; [8],increased
same,PE concentration,[2]; [8],increased
same,TG concentration,[2]; [8],significantly increased
same,concentration of PC20:4n6 (arachidonic acid),[2]; [8],did not change
same,reduction in 18:0 in patients with schizophrenia,"[2]; after treatment, FIG. 1",essentially reversed
same,triacylglycerol and phospholipid content of the plasma,[2]; following treatment,increased
same,fatty acid synthesis,"[2]; inferred from 16:1n7, 18:1n7 and 18:1n9 concentrations",less evident
same,CE18:3n3 I/D,[2]; [9],I
same,DG18:3n6 I/D,[2]; [9],I
same,FA16:0 I/D,[2]; [9],I
same,FA18:0 I/D,[2]; [9],I
same,FA20:4n6 I/D,[2]; [9],I
same,FA20:5n3 I/D,[2]; [9],I
same,FA24:0 I/D,[2]; [9],I
same,FA.SFA I/D,[2]; [9],I
same,LY18:0 I/D,[2]; [9],I
same,LY18:1n9 I/D,[2]; [9],I
same,LY18:3n6 I/D,[2]; [9],I
same,LY20:1n9 I/D,[2]; [9],I
same,LY20:2n6 I/D,[2]; [9],I
same,LY20:3n9 I/D,[2]; [9],I
same,LY20:4n3 I/D,[2]; [9],I
same,LY.n9 I/D,[2]; [9],I
same,PC14:0 I/D,[2]; [9],I
same,PC16:1n7 I/D,[2]; [9],I
same,PC18:0 I/D,[2]; [9],I
same,PC18:1n9 I/D,[2]; [9],I
same,PC18:3n3 I/D,[2]; [9],I
same,PC18:3n6 I/D,[2]; [9],I
same,PC20:2n6 I/D,[2]; [9],I
same,PC20:3n9 I/D,[2]; [9],I
same,PC20:4n3 I/D,[2]; [9],I
same,PC20:5n3 I/D,[2]; [9],I
same,PC.n9 I/D,[2]; [9],I
same,PE18:1n9 I/D,[2]; [9],I
same,PE.n9 I/D,[2]; [9],I
same,TG14:0 I/D,[2]; [9],I
same,TG14:1n5 I/D,[2]; [9],I
same,TG18:0 I/D,[2]; [9],I
same,TG18:3n6 I/D,[2]; [9],I
same,TG20:0 I/D,[2]; [9],I
same,TG20:3n6 I/D,[2]; [9],I
same,TG20:4n3 I/D,[2]; [9],I
same,TG20:5n3 I/D,[2]; [9],I
same,LYLC I/D,[2]; [10],I
same,PCLC I/D,[2]; [10],I
same,PELC I/D,[2]; [10],I
same,levels of arachidonic and docosahexaenoic acids (20:4n6 and 22:6n3),"[2]; present studies, after treatment",remained essentially the same
same,effect on serum lipids,[3]; in vivo,discrepant data
same,"weight gain, mean increases during the first year of therapy",[3]; prospective data,4.4-5.1 lbs
same,apparent delta 5 desaturase activity,"[4]; estimated from 20:4n6/20:3n6 in phosphatidylcholine, FIGS. 5A and 5B",decreased
same,alterations of fatty acid ratios in patients with schizophrenia,[4]; following treatment,essentially reversed toward normal ranges
